These results are taken from US20200405697A1, “Antitumor Agent” (Taiho Pharmaceutical Co., Ltd, priority 2017, published 2020).

The subject of test [1] is MV-4-11. The test is described as follows: Antitumor effect in human-derived blood cancer cell line (MV-4-11) subcutaneous transplantation model (in vivo). The arrangement: species or system nude mouse (BALB/cA Jcl-nu/nu). To be noted: oral, 100 mg/kg/day once per day for 14 days; RTV vs control group, Student-t test, p<0.05. Here is the method:
A human-derived blood cancer cell line MV-4-11 was transplanted subcutaneously into a nude mouse (BALB/cA Jcl-nu/nu, CLEA Japan, Inc.), and at the time when the tumor volume of the nude mouse on which the engrafted tumor reached 100 to 300 mm^3, four mice were assigned to each group by random stratification so that the average of the tumor volumes of each group was uniform (day 0), and the Example compound was orally administered daily at 100 mg/kg/day once per day for 14 days. Example Compound dosing solutions were prepared using 0.5% HPMC.
An electric balance for animals was used in body weight measurement. Rate of change in body weight on day n (BWCn) from body weight on day n (BWn) was calculated according to the following equation.
Rate of change in body weight BWCn (%)=(BWn−BW0)/BW0×100
Tumor volume (TV) was calculated according to the following equation by sandwiching and measuring the major axis and the minor axis with a digital caliper.
Tumor volume (mm^3)=Major axis (mm)×Minor axis (mm)×Minor axis (mm)/2
In order to compare the chronological transition of proliferation of tumor for the administration of each compound, relative tumor volume (RTV) setting the tumor volume at the time of grouping as 1 as the tumor proliferation rate was calculated according to the following formula, and the transition of the average value of RTV of each individual are shown in FIGS. 1 to 4.
RTV=(tumor volume at the day of tumor volume measurement)/(tumor volume at the time of the grouping)

Test [2] concerns the target T1, human RNR (histidine tagged human M1 and human M2 proteins) (Homo sapiens, UniProt P23921).
T1 construct: made in house; host or cells: Escherichia coli
T1 sequence (P23921 1-792): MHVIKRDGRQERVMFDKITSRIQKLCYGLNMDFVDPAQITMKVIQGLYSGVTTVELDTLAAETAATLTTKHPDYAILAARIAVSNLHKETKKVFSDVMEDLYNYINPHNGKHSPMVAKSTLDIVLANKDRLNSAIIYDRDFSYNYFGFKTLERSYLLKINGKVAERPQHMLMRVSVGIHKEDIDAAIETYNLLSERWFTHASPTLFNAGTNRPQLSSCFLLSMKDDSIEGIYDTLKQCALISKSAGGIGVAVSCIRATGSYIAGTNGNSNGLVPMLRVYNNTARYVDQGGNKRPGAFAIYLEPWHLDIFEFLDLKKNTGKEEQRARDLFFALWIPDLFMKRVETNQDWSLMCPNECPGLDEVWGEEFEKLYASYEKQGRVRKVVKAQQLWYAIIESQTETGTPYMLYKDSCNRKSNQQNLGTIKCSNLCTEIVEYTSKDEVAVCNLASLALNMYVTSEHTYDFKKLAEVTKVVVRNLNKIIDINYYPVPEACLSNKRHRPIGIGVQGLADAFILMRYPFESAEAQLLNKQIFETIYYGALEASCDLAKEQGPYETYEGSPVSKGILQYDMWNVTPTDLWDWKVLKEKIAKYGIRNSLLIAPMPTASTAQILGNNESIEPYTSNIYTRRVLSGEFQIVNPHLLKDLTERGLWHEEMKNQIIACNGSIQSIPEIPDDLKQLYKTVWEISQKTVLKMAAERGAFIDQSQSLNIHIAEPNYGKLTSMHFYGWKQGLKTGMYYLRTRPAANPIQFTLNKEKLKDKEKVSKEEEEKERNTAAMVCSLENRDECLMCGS
In words: Human RNR inhibition effect (dCDP formation from CDP). In kind it is biochemical. To be noted: 10 μM CDP, 37° C. for 30 minutes, read-out: RNR inhibitory activity IC50. An outline of the steps:
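His-tagged human M1 (isoform 1) and N-terminal 59-aa-truncated M2 (isoform 2), E. coli-expressed, Ni-purified, preincubated 20 min with compound (1% DMSO). Reaction with 10 μM CDP, 2 mM ATP, 0.24 mM NADPH, 6 mM DTT, 4 mM Mg acetate, 100 mM KCl, 50 mM HEPES pH 7.2, 30 min at 37° C. dCDP formed quantified by reverse-phase HPLC after heat stop.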

Test [3] has as its system A549 (Human lung cancer cell line). The test is described as follows: Effect of combination of sulfonamide compound and other antitumor agent (CellTiter-Glo, combination index): A549. (Cellular ATP, detected with luciferase, serves as a proxy for viable cell number.)
The subject of test [4] is CFPAC-1 (Human pancreatic cancer cell line). The test is described as follows: Effect of combination of sulfonamide compound and other antitumor agent (CellTiter-Glo, combination index): CFPAC-1.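 Further: cells exposed to both agents together for 3 days, viability read by luminescence, normalized to vehicle-treated control wells, mean of triplicate wells.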
Experimental: (§1) Each cell line was seeded at 90 L/well to a 96-well culture plate (Thermo Fisher Scientific, Inc.) according to the above tables. The cell-seeded plate was cultured in an incubator set to 37° C. and 500 CO2. On the day following seeding, varying concentrations of the sulfonamide compound and the other antitumor agent were added in combination to the cells. […] The serial dilutions of each compound, or DW was added at 5μL/well to the plate such that each compound and DW, or the sulfonamide compound and the other antitumor agent were combined. […] The plate after the addition was cultured at 37° C. for 3 days under 5% CO2 conditions.
(§2) Three days later, CellTiter-Glo(R) 2.0 Reagent (Promega Corporation) was added at 100 μL/well, and the amount of luminescence was measured using a plate reader EnSpire(R) Multimode Plate Reader (PerkinElmer Co., Ltd.).
(§3) An average value from 3 wells was calculated as to each drug condition from the obtained data, and cell survival rate normalized against control wells supplemented with the vehicle (DW) was calculated. A Fa (fractional inhibition) value was calculated by subtracting the cell survival rate from 1.
Test [5] concerns HCT116 (Human large intestine cancer cell line). In words: Effect of combination of sulfonamide compound and other antitumor agent (CellTiter-Glo, combination index): HCT116. In kind it is cell-based.
Experimental: as §1, §2, §3
[6] abbreviates: Example Compound 14 874 nM + Prexasertib 1.97 nM.
Where [7] appears, read: Example Compound 14 1310 nM + Prexasertib 2.96 nM.
The mark [8] stands for this setting: Example Compound 14 1970 nM + Prexasertib 4.45 nM.
Setting [9] is: Example Compound 209A 188 nM + Prexasertib 1.97 nM.
[10] abbreviates: Example Compound 209A 282 nM + Prexasertib 2.96 nM.
Setting [11] is: Example Compound 235A 231 nM + Prexasertib 1.97 nM.
[12] abbreviates: Example Compound 235A 346 nM + Prexasertib 2.96 nM.
Setting [13] is: Example Compound 235A 520 nM + Prexasertib 4.44 nM.
Where [14] appears, read: Example Compound 5 311 nM + Prexasertib 1.89 nM.
Where [15] appears, read: Example Compound 5 466 nM + Prexasertib 2.84 nM.
The mark [16] stands for this setting: Example Compound 5 700 nM + Prexasertib 4.26 nM.
The mark [17] stands for this setting: Example Compound 14 616 nM + Prexasertib 1.89 nM.
The mark [18] stands for this setting: Example Compound 14 925 nM + Prexasertib 2.84 nM.
Where [19] appears, read: Example Compound 14 1390 nM + Prexasertib 4.27 nM.
[20] abbreviates: Example Compound 209A 151 nM + Prexasertib 1.90 nM.
[21] abbreviates: Example Compound 209A 226 nM + Prexasertib 2.84 nM.
[22] abbreviates: Example Compound 235A 214 nM + Prexasertib 1.89 nM.
Where [23] appears, read: Example Compound 235A 321 nM + Prexasertib 2.84 nM.
Setting [24] is: Example Compound 235A 481 nM + Prexasertib 4.26 nM.
The mark [25] stands for this setting: Example Compound 5 567 nM + Prexasertib 10.7 nM.
The mark [26] stands for this setting: Example Compound 5 851 nM + Prexasertib 16.1 nM.
Where [27] appears, read: Example Compound 14 1000 nM + Prexasertib 7.14 nM.
Setting [28] is: Example Compound 14 1500 nM + Prexasertib 10.7 nM.
[29] abbreviates: Example Compound 14 2250 nM + Prexasertib 16.1 nM.
Where [30] appears, read: Example Compound 209A 187 nM + Prexasertib 7.13 nM.
[31] abbreviates: Example Compound 209A 281 nM + Prexasertib 10.7 nM.
Setting [32] is: Example Compound 209A 421 nM + Prexasertib 16.1 nM.
The mark [33] stands for this setting: HCT116, Example Compound 235A 317 nM combined with Prexasertib 7.15 nM, molar ratio 1:0.02255.
The mark [34] stands for this setting: HCT116, Example Compound 235A 475 nM combined with Prexasertib 10.7 nM, molar ratio 1:0.02255.
[35] abbreviates: HCT116, Example Compound 235A 712 nM combined with Prexasertib 16.1 nM, molar ratio 1:0.02255.

On to `Cc1ccc(F)c([C@@H](C)[C@H](NS(=O)(=O)c2ccc(Cl)c3c2OCCC3O)c2n[nH]c(=O)o2)c1C` (single isomer, unassigned) [Example 235A], for which the “antitumor effect (relative tumor volume, RTV)” value in test [1] is reported as “antitumor effect”. For the same molecule, the IC50 in test [2] is 80 nM.

On to `Cc1c(Cl)ccc(F)c1[C@@H](C)[C@H](NS(=O)(=O)c1ccc(Cl)c2c1OCCC2(C)O)c1n[nH]c(=O)o1` (single isomer, unassigned) [Example 228A], for which the “antitumor effect (relative tumor volume, RTV)” value in test [1] is “antitumor effect”.

Take `COc1cccc(OCCCN)c1-c1cc(Nc2cnc(C#N)cn2)n[nH]1` [Prexasertib, prexasertib]: the CI value was 0.277 in test [3] (setting [6]); 0.193 in test [3] (setting [7]); 0.177 in test [3] (setting [8]); 0.258 in test [3] (setting [9]); 0.189 in test [3] (setting [10]); 0.331 in test [3] (setting [11]). In addition, the CI value in test [3] (setting [12]) is 0.191; in test [3] (setting [13]), 0.174; in test [4] (setting [14]), 0.579; in test [4] (setting [15]) it was 0.413; in test [4] (setting [16]), 0.525; in test [4] (setting [17]) it was 0.886. Also, the CI value turned out to be 0.452 in test [4] (setting [18]); 0.514 in test [4] (setting [19]); 0.735 in test [4] (setting [20]); 0.558 in test [4] (setting [21]); 0.645 in test [4] (setting [22]); 0.344 in test [4] (setting [23]). In addition, the CI value in test [4] (setting [24]) came out at 0.372; in test [5] (setting [25]), 0.289; in test [5] (setting [26]), 0.180; in test [5] (setting [27]), 0.535; in test [5] (setting [28]), 0.208; in test [5] (setting [29]), 0.174. Moreover, the CI value in test [5] (setting [30]) was determined as 0.792; in test [5] (setting [31]) it was 0.230; in test [5] (setting [32]) it was 0.173; in test [5] (setting [33]), 0.557; in test [5] (setting [34]), 0.224; in test [5] (setting [35]), 0.197. For the same molecule, the Fa value in test [3] (setting [6]) is on record as 0.4973; in test [3] (setting [7]), 0.7864; in test [3] (setting [8]) it was 0.8986; in test [3] (setting [9]), 0.5015; in test [3] (setting [10]), 0.7685; in test [3] (setting [11]), 0.4315. Further, the Fa value in test [3] (setting [12]) turned out to be 0.7784; in test [3] (setting [13]), 0.8915; in test [4] (setting [14]), 0.3644; in test [4] (setting [15]), 0.6946; in test [4] (setting [16]), 0.7564; in test [4] (setting [17]), 0.2455. For the same molecule, the Fa value stood at 0.6771 in test [4] (setting [18]); 0.7725 in test [4] (setting [19]); 0.3163 in test [4] (setting [20]); 0.6872 in test [4] (setting [21]); 0.3469 in test [4] (setting [22]); 0.6687 in test [4] (setting [23]). For the same molecule, the Fa value in test [4] (setting [24]) worked out at 0.7578; in test [5] (setting [25]), 0.7563; in test [5] (setting [26]) it was 0.9499; in test [5] (setting [27]) it was 0.3054; in test [5] (setting [28]) it was 0.8469; in test [5] (setting [29]), 0.9453. The Fa value is on record as 0.1703 in test [5] (setting [30]); 0.8191 in test [5] (setting [31]); 0.9441 in test [5] (setting [32]); 0.3131 in test [5] (setting [33]); 0.8595 in test [5] (setting [34]); 0.9459 in test [5] (setting [35]).

As to `Cc1c(Br)ccc(F)c1[C@@H](C)[C@H](NS(=O)(=O)c1ccc(Cl)c2c1OCCC2(C)O)c1n[nH]c(=O)o1` (single isomer, unassigned) [Example 222A], the “antitumor effect (relative tumor volume, RTV)” value in test [1] was “antitumor effect”. In addition, the 50% inhibitory concentration (IC50) in test [2] was 80 nM.

Take `Cc1c(Cl)ccc(F)c1[C@@H](C)[C@H](NS(=O)(=O)c1ccc(Cl)cc1C(N)=O)c1n[nH]c(=O)o1` [Example 14, 5-chloro-2-(N-((1S,2R)-2-(3-chloro-6-fluoro-2-methylphenyl)-1-(5-oxo-4,5-dihydro-1,3,4-oxadiazol-2-yl)propyl)sulfamoyl)benzamide]: the “antitumor effect (relative tumor volume, RTV)” value in test [1] is on record as “antitumor effect”. Also, the IC50 in test [2] came to 250 nM.

Consider `Cc1c(Cl)ccc(F)c1[C@@H](C)[C@H](NS(=O)(=O)c1ccc(Cl)c2c1OCCC2(C)O)c1n[nH]c(=O)o1` (single isomer, unassigned) [Example 209A], for which the “antitumor effect (relative tumor volume, RTV)” value in test [1] is reported as “antitumor effect”. Moreover, in test [2], the 50% inhibitory concentration (IC50) was 100 nM.

In general, IC50 refers to the midpoint of a concentration-inhibition curve.
